Data published in patent US8962530B2, “Inflammatory bowel disease therapies” (Regents of the University of Colorado, priority 2007, dated 2015).

Legend:
[1] = system: TNBS-induced colitis; test: Intestinal permeability, FITC-labeled-dextran method, TNBS-colitis model; type: in vivo; details: TNBS-colitis mice; 60 mg/kg i.p.; FITC-dextran gavage after 20 hours, serum four hours later; compared to vehicle control
From the text: The effectiveness of compounds and methods of the present invention on intestinal barrier protection and treatment of inflammatory bowel disease (IBD) in TNBS (2,4,6-trinitrobenzene sulfonic acid)-induced colitis, an established animal model of inflammatory bowel disease, was examined. TNBS-induced colitis was induced in mice using a modification of techniques previously described. (See Morris et al (1989) Gastroenterology 96:795-803; Boirivant et al (1998) J Exp Med 188:1929-1939; Karhausen et al (2004) J Clin Invest 114:1098-1106.) Mice were shaved on the abdomen (causing total depletion of hair and microlesions) and were then sensitized to subsequent treatment by epicutaneous application of 1% TNBS (Sigma-Aldrich) in 100% ethanol on day minus 7. Seven days later, on day 0, animals were sedated with a 2.5% Tribromoethanol solution in phosphate-buffered saline (14 μl/g body weight), followed by intrarectal administration of a 2.5% TNBS solution in 50% ethanol (5 μl/g body weight). Administration of the 2.5% TNBS solution was carried out using an epidural catheter ([…] Plus Epidural Catheter, Arrow International), which was inserted approximately 6 cm ab ano followed by release of the TNBS solution. […] Four hours later, changes in intestinal permeability were determined by measurement of serum FITC-dextran levels.

[2] = system: TNBS-induced colitis; test: Histological analysis of colon sections in TNBS-colitis model; type: in vivo; details: TNBS-colitis mice; 40 mg/kg i.p. on day minus 1, day 0, day 1; day three; compared to vehicle-control treated TNBS-colitis animals
From the text: The effectiveness of compounds and methods of the present invention on intestinal barrier protection and treatment of inflammatory bowel disease (IBD) in TNBS (2,4,6-trinitrobenzene sulfonic acid)-induced colitis, an established animal model of inflammatory bowel disease, was examined. TNBS-induced colitis was induced in mice using a modification of techniques previously described. (See Morris et al (1989) Gastroenterology 96:795-803; Boirivant et al (1998) J Exp Med 188:1929-1939; Karhausen et al (2004) J Clin Invest 114:1098-1106.) Mice were shaved on the abdomen (causing total depletion of hair and microlesions) and were then sensitized to subsequent treatment by epicutaneous application of 1% TNBS (Sigma-Aldrich) in 100% ethanol on day minus 7. Seven days later, on day 0, animals were sedated with a 2.5% Tribromoethanol solution in phosphate-buffered saline (14 μl/g body weight), followed by intrarectal administration of a 2.5% TNBS solution in 50% ethanol (5 μl/g body weight). Administration of the 2.5% TNBS solution was carried out using an epidural catheter ([…] Plus Epidural Catheter, Arrow International), which was inserted approximately 6 cm ab ano followed by release of the TNBS solution. To ensure the continuance of the TNBS solution in the colon, mice were suspended in a vertical position for at least 5 minutes following administration. Vehicle control animals received a corresponding volume of 50% ethanol solution alone. Unless otherwise indicated, compounds of the invention were administered to animals intraperitoneally (i.p.) as a solution. Animals were dosed with compound (40 mg/kg/day or 20 mg/kg/day) on day minus 1, day 0, and day 1, or exclusively on day 0 and day 1, by i.p. injection. On day 0, TNBS treatment was performed on animals 4 hours after injection of compound. The effect of methods and compounds of the present invention on structural changes of the colon associated with inflammatory bowel disease was studied using an established animal model of inflammatory bowel disease (described above in Example 1). […]

## O=C(O)CNC(=O)c1ncc2cc(Sc3ccccc3)ccc2c1O [Compound A, [(4-Hydroxy-7-phenylsulfanyl-isoquinoline-3-carbonyl)-amino]-acetic acid]
[1]
  serum FITC-dextran levels (intestinal permeability): lower levels of serum FITC-dextran
[2]
  inflammatory infiltrate in colon sections: reduction in inflammatory infiltrate
  tissue architecture in colon sections: overall general preservation of tissue architecture
  villous blunting in colon sections: reduction in villous blunting
